# According to ChEMBL document CHEMBL1158148, “Characterization of an irritant 4-deoxyphorbol diester from Euphorbia tirucalli” (J Nat Prod, 1979):
# Columns and labels:
# [1] = species: Mus musculus; assay: Toxicity against Swiss-Webster mouse assessed as irritation in ear per 5 ul after 4 hrs; format: organism-based; settings: in vivo, topical_or_ocular
# [2] = species: Mus musculus; assay: Toxicity against Swiss-Webster mouse assessed as irritation in ear per 5 ul after 24 hrs; format: organism-based; settings: in vivo, topical_or_ocular
smiles,measurement,setting,value
CC1=C[C@H]2[C@@]3(O)[C@H](C)[C@@H](OC(=O)c4ccccc4)[C@]4(OC(=O)c5ccccc5)[C@H]([C@@H]3C=C(CO)C[C@]2(O)C1=O)C4(C)C,ID50,[1],0.6 µg
same,ID50,[2],0.83 µg
CCCCCCCCCCCCCC(=O)O[C@@H]1[C@@H](C)[C@@]2(O)[C@@H](C=C(CO)C[C@]3(O)C(=O)C(C)=C[C@@H]23)[C@@H]2C(C)(C)[C@]12OC(C)=O [PHORBOL MYRISTATE ACETATE],ID50,[1],0.04 µg
same,ID50,[2],0.05 µg
CCC/C=C/C=C\C(=O)O[C@@H]1[C@@H](C)[C@]2(O)[C@@H]3C=C(C)C(=O)[C@H]3CC(CO)=C[C@H]2[C@@H]2C(C)(C)[C@]12OC(C)=O,ID50,[1],0.04 µg
same,ID50,[2],0.07 µg
CCC/C=C/C=C\C(=O)O[C@@H]1[C@@H](C)[C@]2(O)[C@@H]3C=C(C)C(=O)[C@@H]3CC(CO)=C[C@H]2[C@@H]2C(C)(C)[C@]12O,ID50,[1],> 100 µg
same,ID50,[2],> 100 µg
